Assay results as given in US8440698B2, “3-(4-((1H-imidazol-1-yl)methyl)phenyl)-5-aryl-1,2,4-oxadiazole derivatives as sphingosine-1 phosphate receptors modulators” (Allergan, Inc., priority 2010, dated 2013).

Molecular target: T1, human S1P1 receptor (Homo sapiens, UniProt P21453)
T1 construct: expressed in transfected cells; membranes used
Assay: GTP γ35S binding assay for S1P1 activity
Assay type: biochemical
Conditions: for Emax at 5 µM: intrinsic activity at 5 μM, read-out: % S1P1 STIMULATION @ 5 μM; for EC50: membranes of cells stably expressing S1P1, test concentrations 0.08 to 5,000 nM, read-out: S1P1 GTPγ^35S EC50
Method: Novel compounds were synthesized and tested for S1P1 activity using the GTP γ^35S binding assay. These compounds may be assessed for their ability to activate or block activation of the human S1P1 receptor in cells stably expressing the S1P1 receptor. GTP γ^35S binding was measured in the medium containing (mM) HEPES 25, pH 7.4, MgCl2 10, NaCl 100, dithitothreitol 0.5, digitonin 0.003%, 0.2 nM GTP γ^35S, and 5 μg membrane protein in a volume of 150 μl. Test compounds were included in the concentration range from 0.08 to 5,000 nM unless indicated otherwise. Membranes were incubated with 100 μM 5′-adenylylimmidodiphosphate for 30 min, and subsequently with 10 μM GDP for 10 min on ice. Drug solutions and membrane were mixed, and then reactions were initiated by adding GTP γ^35S and continued for 30 min at 25° C. Reaction mixtures were filtered over Whatman GF/B filters under vacuum, and washed three times with 3 mL of ice-cold buffer (HEPES 25, pH7.4, MgCl2 10 and NaCl 100). Filters were dried and mixed with scintillant, and counted for ^35S activity using a β-counter. Agonist-induced GTP γ^35S binding was obtained by subtracting that in the absence of agonist. Binding data were analyzed using a non-linear regression method. In case of antagonist assay, the reaction mixture contained 10 nM S1P in the presence of test antagonist at concentrations ranging from 0.08 to 5000 nM.

T1 sequence (P21453 whole entry): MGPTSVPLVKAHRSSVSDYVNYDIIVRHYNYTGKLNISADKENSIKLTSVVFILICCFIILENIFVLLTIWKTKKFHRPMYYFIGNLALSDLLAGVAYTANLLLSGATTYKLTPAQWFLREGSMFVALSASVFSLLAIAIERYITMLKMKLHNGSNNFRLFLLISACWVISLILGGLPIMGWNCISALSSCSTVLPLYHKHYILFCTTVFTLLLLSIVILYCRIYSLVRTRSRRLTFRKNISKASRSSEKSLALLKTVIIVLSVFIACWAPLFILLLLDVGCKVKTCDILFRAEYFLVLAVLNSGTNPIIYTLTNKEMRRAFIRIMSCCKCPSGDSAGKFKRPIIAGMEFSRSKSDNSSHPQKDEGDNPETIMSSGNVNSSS

SMILES	Emax at 5 µM	EC50
Cc1cc(Cn2ccnc2)ccc1-c1noc(-c2ccc(OC(C)C)c([N+](=O)[O-])c2)n1 [Compound 19, 3-(4-Imidazol-1-ylmethyl-2-methyl-phenyl)-5-(4-isopropoxy-3-nitro-phenyl)-[1,2,4]oxadiazole]	102%	0.00898 µM
Cc1cc(-c2nc(-c3ccc(Cn4ccnc4)cc3)no2)ccc1OC(C)C [Compound 17, 3-(4-Imidazol-1-ylmethyl-phenyl)-5-(4-isopropoxy-3-methyl-phenyl)-[1,2,4]oxadiazole]	133%	0.0103 µM
CC(C)Oc1ccc(-c2nc(-c3ccc(Cn4ccnc4)cc3C(F)(F)F)no2)cc1C#N [5-[3-(4-Imidazol-1-ylmethyl-2-trifluoromethyl-phenyl)-[1,2,4]oxadiazol-5-yl]-2-isopropoxy-benzonitrile]	97.6%	0.00522 µM
CC(C)COc1ccc(-c2nc(-c3ccc(Cn4ccnc4)cc3)no2)cc1C#N [Compound 8, 5-[3-(4-Imidazol-1-ylmethyl-phenyl)-[1,2,4]oxadiazol-5-yl]-2-isobutoxy-benzonitrile]	75.9%	0.062 µM
FC(F)(F)c1cc(-c2nc(-c3ccc(Cn4ccnc4)cc3)no2)ccc1OC1CCCCC1 [Compound 5, 5-(4-Cyclohexyloxy-3-trifluoromethyl-phenyl)-3-(4-imidazol-1-ylmethyl-phenyl)-[1,2,4]oxadiazole]	91.8%	0.149 µM
CC(C)COc1ccc(-c2nc(-c3ccc(Cn4ccnc4)cc3)no2)cc1Br [Compound 9, 5-(3-Bromo-4-isobutoxy-phenyl)-3-(4-imidazol-1-ylmethyl-phenyl)-[1,2,4]oxadiazole]	86.2%	0.0286 µM
Cc1cc(Cn2ccnc2)ccc1-c1noc(-c2ccc(OC(C)C)c(C#N)c2)n1 [Compound 13, 5-[3-(4-Imidazol-1-ylmethyl-2-methyl-phenyl)-[1,2,4]oxadiazol-5-yl]-2-isopropoxy-benzonitrile]	96.4%	0.00476 µM
CC(C)COc1ccc(-c2nc(-c3ccc(Cn4ccnc4)cc3C(F)(F)F)no2)cc1Br [5-(3-bromo-4-isobutoxyphenyl)-3-[4-(1H-imidazol-1-ylmethyl)-2-(trifluoromethyl)phenyl]-1,2,4-oxadiazole]	98.3%	0.144 µM
CC(C)Oc1ccc(-c2nc(-c3ccc(Cn4ccnc4)cc3C(F)(F)F)no2)cc1Br [5-(3-Bromo-4-isopropoxy-phenyl)-3-(4-imidazol-1-ylmethyl-2-trifluoromethyl-phenyl)-[1,2,4]oxadiazole]	100%	0.102 µM
CC(C)Oc1ccc(-c2nc(-c3ccc(Cn4ccnc4)cc3)no2)cc1C#N [Compound 12, 5-[3-(4-Imidazol-1-ylmethyl-phenyl)-[1,2,4]oxadiazol-5-yl]-2-isopropoxy-benzonitrile]	94.6%	0.00331 µM
CC(C)Oc1ccc(-c2nc(-c3ccc(Cn4ccnc4)cc3Cl)no2)cc1C#N [5-{3-[2-chloro-4-(1H-imidazol-1-ylmethyl)phenyl]-1,2,4-oxadiazol-5-yl}-2-isopropoxybenzonitrile]	94.9%	0.00456 µM
Cc1cc(-c2nc(-c3ccc(Cn4ccnc4)cc3C(F)(F)F)no2)ccc1OC(C)C [3-[4-(1H-imidazol-1-ylmethyl)-2-(trifluoromethyl)phenyl]-5-(4-isopropoxy-3-methylphenyl)-1,2,4-oxadiazole]	7.4%	–
CC(C)Oc1ccc(-c2nc(-c3ccc(Cn4ccnc4)cc3)no2)cc1 [Compound 11, 3-(4-Imidazol-1-ylmethyl-phenyl)-5-(4-isopropoxy-phenyl)-[1,2,4]oxadiazole]	92.8%	0.453 µM
CC(C)Oc1ccc(-c2nc(-c3ccc(Cn4ccnc4)cc3)no2)cc1Br [Compound 14, 5-(3-Bromo-4-isopropoxy-phenyl)-3-(4-imidazol-1-ylmethyl-phenyl)-[1,2,4]oxadiazole]	93.9%	0.00092 µM
CC(C)COc1ccc(-c2nc(-c3ccc(Cn4ccnc4)cc3)no2)cc1C(F)(F)F [Compound 4, 3-(4-Imidazol-1-ylmethyl-phenyl)-5-(4-isobutoxy-3-trifluoromethyl-phenyl)-[1,2,4]oxadiazole]	72.2%	0.998 µM
Cc1cc(Cn2ccnc2)ccc1-c1noc(-c2ccc(OC(C)C)c(C(F)(F)F)c2)n1 [Compound 6, 3-(4-Imidazol-1-ylmethyl-2-methyl-phenyl)-5-(4-isopropoxy-3-trifluoromethyl-phenyl)-[1,2,4]oxadiazole]	95.5%	0.00338 µM

SMILES	Emax at 5 µM	EC50
Cc1cc(Cn2ccnc2)ccc1-c1noc(-c2ccc(OC3CC3)c(Br)c2)n1 [Compound 2, 5-(3-Bromo-4-cyclopropoxy-phenyl)-3-(4-imidazol-1-ylmethyl-2-methyl-phenyl)-[1,2,4]oxadiazole]	96%	0.032 µM
CC(C)Oc1ccc(-c2nc(-c3ccc(Cn4ccnc4)cc3C(F)(F)F)no2)cc1C(F)(F)F [3-[4-(1H-imidazol-1-ylmethyl)-2-(trifluoromethyl)phenyl]-5-[4-isopropoxy-3-(trifluoromethyl)phenyl]-1,2,4-oxadiazole]	80.9%	0.0624 µM
CC(C)Oc1ccc(-c2nc(-c3ccc(Cn4ccnc4)cc3Cl)no2)cc1[N+](=O)[O-] [3-[2-chloro-4-(1H-imidazol-1-ylmethyl)phenyl]-5-(4-isopropoxy-3-nitrophenyl)-1,2,4-oxadiazole]	92.3%	0.00879 µM
Cc1cc(-c2nc(-c3ccc(Cn4ccnc4)cc3C)no2)ccc1OC(C)C [Compound 18, 3-(4-Imidazol-1-ylmethyl-2-methyl-phenyl)-5-(4-isopropoxy-3-methyl-phenyl)-[1,2,4]oxadiazole]	94.6%	0.0198 µM
CC(C)Oc1ccc(-c2nc(-c3ccc(Cn4ccnc4)cc3C(F)(F)F)no2)cc1[N+](=O)[O-] [3-[4-(1H-imidazol-1-ylmethyl)-2-(trifluoromethyl)phenyl]-5-(4-isopropoxy-3-nitrophenyl)-1,2,4-oxadiazole]	79.4%	0.00637 µM
CC(C)Oc1ccc(-c2nc(-c3ccc(Cn4ccnc4)cc3)no2)cc1C(F)(F)F [Compound 3, 3-(4-Imidazol-1-ylmethyl-phenyl)-5-(4-isopropoxy-3-trifluoromethyl-phenyl)-[1,2,4]oxadiazole]	95.6%	0.00051 µM
CC(C)Oc1ccc(-c2nc(-c3ccc(Cn4ccnc4)cc3)no2)cc1[N+](=O)[O-] [Compound 7, 3-(4-Imidazol-1-ylmethyl-phenyl)-5-(4-isopropoxy-3-nitro-phenyl)-[1,2,4]oxadiazole]	118%	0.00324 µM
CC(C)Oc1ccc(-c2nc(-c3ccc(Cn4ccnc4)cc3Cl)no2)cc1C(F)(F)F [3-[2-chloro-4-(1H-imidazol-1-ylmethyl)phenyl]-5-[4-isopropoxy-3-(trifluoromethyl)phenyl]-1,2,4-oxadiazole]	79.6%	0.00355 µM
CC1CCCCN1c1ccc(-c2nc(-c3ccc(Cn4ccnc4)cc3)no2)cc1C#N (stereo not shown) [5-{3-[4-(1H-imidazol-1-ylmethyl)phenyl]-1,2,4-oxadiazol-5-yl}-2-(2-methylpiperidin-1-yl)benzonitrile]	99.9%	0.13 µM
Cc1cc(Cn2ccnc2)ccc1-c1noc(-c2ccc(OC(C)C)c(Br)c2)n1 [Compound 15, 5-(3-Bromo-4-isopropoxy-phenyl)-3-(4-imidazol-1-ylmethyl-2-methyl-phenyl)-[1,2,4]oxadiazole]	109%	0.0196 µM
Brc1cc(-c2nc(-c3ccc(Cn4ccnc4)cc3)no2)ccc1OC1CC1 [Compound 1, 5-(3-Bromo-4-cyclopropoxy-phenyl)-3-(4-imidazol-1-ylmethyl-phenyl)-[1,2,4]oxadiazole]	99.9%	0.0144 µM
CC(C)Oc1ccc(-c2nc(-c3ccc(Cn4ccnc4)cc3)no2)cc1Cl [Compound 16, 5-(3-Chloro-4-isopropoxy-phenyl)-3-(4-imidazol-1-ylmethyl-phenyl)-[1,2,4]oxadiazole]	99.8%	0.00279 µM
CC(C)Cc1ccc(-c2nc(-c3ccc(Cn4ccnc4)cc3)no2)cc1 [Compound 10, 3-(4-Imidazol-1-ylmethyl-phenyl)-5-(4-isobutyl-phenyl)-[1,2,4]oxadiazole]	79.8%	0.543 µM
CC(C)Oc1ccc(-c2nc(-c3ccc(Cn4ccnc4)cc3Cl)no2)cc1Br [5-(3-bromo-4-isopropoxyphenyl)-3-[2-chloro-4-(1H-imidazol-1-ylmethyl)phenyl]-1,2,4-oxadiazole]	102%	0.0297 µM
FC(F)(F)c1cc(Cn2ccnc2)ccc1-c1noc(-c2ccc(OC3CC3)c(Br)c2)n1 [5-[3-bromo-4-(cyclopropyloxy)phenyl]-3-[4-(1H-imidazol-1-ylmethyl)-2-(trifluoromethyl)phenyl]-1,2,4-oxadiazole]	89.6%	0.119 µM
